Assay results taken from PubChem BioAssay (NCI).
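Grown in 96-well plates, cells were treated for 48 hours with each compound at five concentrations. Insufficient inhibition: endpoint recorded as highest concentration tested. TGI: concentration producing complete growth inhibition.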

Key:
Test in all cases: NCI tumour cell line growth inhibition, 48 h
OVCAR-8 ovarian = system: OVCAR-8 ovarian
SNB-19 CNS = system: SNB-19 CNS
NCI/ADR-RES ovarian = system: NCI/ADR-RES ovarian
NCI-H522 lung = system: NCI-H522 lung
NCI-H460 lung = system: NCI-H460 lung
SK-MEL-28 melanoma = system: SK-MEL-28 melanoma
OVCAR-4 ovarian = system: OVCAR-4 ovarian
K-562 leukemia = system: K-562 leukemia
MDA-MB-231 breast = system: MDA-MB-231 breast
UACC-62 melanoma = system: UACC-62 melanoma
CAKI-1 renal = system: CAKI-1 renal
IGROV1 ovarian = system: IGROV1 ovarian
SR leukemia = system: SR leukemia
COLO 205 colon = system: COLO 205 colon
A549 NSCLC = system: A549 NSCLC
T-47D breast = system: T-47D breast
HCC-2998 colon = system: HCC-2998 colon
RXF 393 renal = system: RXF 393 renal
BT-549 breast = system: BT-549 breast
OVCAR-3 ovarian = system: OVCAR-3 ovarian
EKVX NSCLC = system: EKVX NSCLC
KM12 colon = system: KM12 colon
SF-539 CNS = system: SF-539 CNS
M14 melanoma = system: M14 melanoma
SK-MEL-2 melanoma = system: SK-MEL-2 melanoma
PC-3 prostate = system: PC-3 prostate
UO-31 renal = system: UO-31 renal
TK-10 renal = system: TK-10 renal
U251 CNS = system: U251 CNS
CCRF-CEM leukemia = system: CCRF-CEM leukemia
MALME-3M melanoma = system: MALME-3M melanoma
RPMI-8226 leukemia = system: RPMI-8226 leukemia
DU-145 prostate = system: DU-145 prostate
OVCAR-5 ovarian = system: OVCAR-5 ovarian
UACC-257 melanoma = system: UACC-257 melanoma
786-0 renal = system: 786-0 renal
HCT-116 colon = system: HCT-116 colon
NCI-H23 lung = system: NCI-H23 lung
SF-295 CNS = system: SF-295 CNS
HOP-92 NSCLC = system: HOP-92 NSCLC
HCT-15 colon = system: HCT-15 colon
HL-60(TB) leukemia = system: HL-60(TB) leukemia
SNB-75 CNS = system: SNB-75 CNS
SN12C renal = system: SN12C renal
SF-268 CNS = system: SF-268 CNS
A498 renal = system: A498 renal
SW-620 colon = system: SW-620 colon
SK-OV-3 ovarian = system: SK-OV-3 ovarian
MDA-N = system: MDA-N
MOLT-4 leukemia = system: MOLT-4 leukemia
MDA-MB-435 = system: MDA-MB-435
HOP-62 NSCLC = system: HOP-62 NSCLC
NCI-H226 lung = system: NCI-H226 lung
MCF7 breast = system: MCF7 breast
ACHN renal = system: ACHN renal
HT29 colon = system: HT29 colon
SK-MEL-5 melanoma = system: SK-MEL-5 melanoma
LOX IMVI melanoma = system: LOX IMVI melanoma
HS 578T breast = system: HS 578T breast

Work on OCCOCCO/N=C1\C(c2c(O)[nH]c3ccccc23)=Nc2ccccc21 yielded a TGI (OVCAR-8 ovarian) of 27.9 µM, a TGI (SNB-19 CNS) of 33.7 µM and a TGI (NCI/ADR-RES ovarian) of over 49.2 µM. The TGI (NCI-H522 lung) was 17 µM, the TGI (NCI-H460 lung) was 15.3 µM and the TGI (SK-MEL-28 melanoma) was over 85.2 µM. For the same molecule, the TGI (OVCAR-4 ovarian) was 43.1 µM, the TGI (K-562 leukemia) was over 100 µM and the TGI (MDA-MB-231 breast) was 29.9 µM. The TGI (UACC-62 melanoma) was 6.99 µM, the TGI (CAKI-1 renal) was 10.8 µM and the TGI (IGROV1 ovarian) was 5.35 µM. The TGI (SR leukemia) was over 100 µM, the TGI (COLO 205 colon) was 3.38 µM and the TGI (A549 NSCLC) was 17.1 µM. The TGI (T-47D breast) was over 44.6 µM, the TGI (HCC-2998 colon) was 11.6 µM and the TGI (RXF 393 renal) was 6.42 µM. The TGI (BT-549 breast) was 18.3 µM, the TGI (OVCAR-3 ovarian) was 10.2 µM and the TGI (EKVX NSCLC) was 18.2 µM. It also gave a TGI (KM12 colon) of 14.1 µM, a TGI (SF-539 CNS) of 11.5 µM and a TGI (M14 melanoma) of over 100 µM. For the same molecule, the TGI (SK-MEL-2 melanoma) was 13.7 µM, the TGI (PC-3 prostate) was 18.1 µM and the TGI (UO-31 renal) was 6.48 µM. It also gave a TGI (TK-10 renal) of 20.9 µM, a TGI (U251 CNS) of 16.8 µM and a TGI (CCRF-CEM leukemia) of over 100 µM. For the same molecule, the TGI (MALME-3M melanoma) was 17.5 µM, the TGI (RPMI-8226 leukemia) was over 33.2 µM and the TGI (DU-145 prostate) was 22.8 µM. For the same molecule, the TGI (OVCAR-5 ovarian) was 20.5 µM, the TGI (UACC-257 melanoma) was over 73.1 µM and the TGI (786-0 renal) was 12.1 µM. It also gave a TGI (HCT-116 colon) of 3.95 µM, a TGI (NCI-H23 lung) of 29.3 µM and a TGI (SF-295 CNS) of 10.2 µM. For the same molecule, the TGI (HOP-92 NSCLC) was 69.6 µM, the TGI (HCT-15 colon) was over 52.4 µM and the TGI (HL-60(TB) leukemia) was 39.3 µM. It also gave a TGI (SNB-75 CNS) of 13.8 µM, a TGI (SN12C renal) of 17.9 µM and a TGI (SF-268 CNS) of 17.8 µM. The TGI (A498 renal) was 0.839 µM, the TGI (SW-620 colon) was over 100 µM and the TGI (SK-OV-3 ovarian) was 3.27 µM. The TGI (MDA-N) was 26.7 µM, the TGI (MOLT-4 leukemia) was over 100 µM and the TGI (MDA-MB-435) was 27.8 µM. The TGI (HOP-62 NSCLC) was 27.6 µM, the TGI (NCI-H226 lung) was 10.3 µM and the TGI (MCF7 breast) was 9.73 µM. The TGI (ACHN renal) was 10.3 µM, the TGI (HT29 colon) was 7.11 µM and the TGI (SK-MEL-5 melanoma) was 6 µM. For the same molecule, the TGI (LOX IMVI melanoma) was 11.6 µM.
For COc1ccc(NC(C)=O)cc1N1C(=O)/C(=C\c2cccc(Oc3ccccc3)c2)S(=O)(=O)C1c1ccccc1 (configuration not stated), the TGI (OVCAR-8 ovarian) was over 100 µM, the TGI (SNB-19 CNS) was over 100 µM and the TGI (NCI/ADR-RES ovarian) was over 100 µM. The TGI (NCI-H522 lung) was over 100 µM, the TGI (NCI-H460 lung) was over 100 µM and the TGI (SK-MEL-28 melanoma) was over 100 µM. The TGI (OVCAR-4 ovarian) was over 100 µM, the TGI (K-562 leukemia) was 68.9 µM and the TGI (MDA-MB-231 breast) was over 100 µM. The TGI (UACC-62 melanoma) was over 100 µM, the TGI (CAKI-1 renal) was 44.8 µM and the TGI (IGROV1 ovarian) was over 100 µM. For the same molecule, the TGI (SR leukemia) was 23.9 µM, the TGI (COLO 205 colon) was over 100 µM and the TGI (A549 NSCLC) was over 100 µM. The TGI (T-47D breast) was over 100 µM, the TGI (HCC-2998 colon) was over 100 µM and the TGI (RXF 393 renal) was over 100 µM. For the same molecule, the TGI (BT-549 breast) was over 100 µM, the TGI (OVCAR-3 ovarian) was over 100 µM and the TGI (EKVX NSCLC) was over 100 µM. It also gave a TGI (KM12 colon) of over 100 µM, a TGI (SF-539 CNS) of 74.6 µM and a TGI (M14 melanoma) of over 100 µM. It also gave a TGI (SK-MEL-2 melanoma) of over 100 µM, a TGI (PC-3 prostate) of over 100 µM and a TGI (UO-31 renal) of over 100 µM. The TGI (TK-10 renal) was over 100 µM, the TGI (U251 CNS) was over 100 µM and the TGI (CCRF-CEM leukemia) was 83.8 µM. For the same molecule, the TGI (MALME-3M melanoma) was over 100 µM, the TGI (RPMI-8226 leukemia) was 73.6 µM and the TGI (DU-145 prostate) was over 100 µM. It also gave a TGI (OVCAR-5 ovarian) of over 100 µM, a TGI (UACC-257 melanoma) of over 100 µM and a TGI (786-0 renal) of over 100 µM. For the same molecule, the TGI (HCT-116 colon) was 31.3 µM, the TGI (NCI-H23 lung) was over 100 µM and the TGI (SF-295 CNS) was over 100 µM. The TGI (HOP-92 NSCLC) was over 100 µM, the TGI (HCT-15 colon) was over 100 µM and the TGI (HL-60(TB) leukemia) was 40.5 µM. It also gave a TGI (SNB-75 CNS) of over 100 µM, a TGI (SN12C renal) of 73 µM and a TGI (A498 renal) of over 100 µM. The TGI (SW-620 colon) was over 100 µM, the TGI (SK-OV-3 ovarian) was over 100 µM and the TGI (MDA-N) was 53.6 µM. For the same molecule, the TGI (MOLT-4 leukemia) was 59 µM, the TGI (MDA-MB-435) was over 100 µM and the TGI (HOP-62 NSCLC) was over 100 µM. The TGI (NCI-H226 lung) was over 100 µM, the TGI (MCF7 breast) was over 100 µM and the TGI (ACHN renal) was over 100 µM. For the same molecule, the TGI (HT29 colon) was 43.7 µM, the TGI (SK-MEL-5 melanoma) was over 100 µM and the TGI (LOX IMVI melanoma) was over 100 µM.
In the case of CC(C)=NNC1=NC(C)(C)P(=O)(NNc2ncccn2)S1 (configuration not stated), the TGI (OVCAR-8 ovarian) is reported as over 100 µM, the TGI (SNB-19 CNS) is reported as over 100 µM and the TGI (NCI-H522 lung) is reported as over 100 µM. The TGI (NCI-H460 lung) was over 100 µM, the TGI (SK-MEL-28 melanoma) was over 100 µM and the TGI (OVCAR-4 ovarian) was over 100 µM. The TGI (K-562 leukemia) was over 100 µM, the TGI (MDA-MB-231 breast) was over 100 µM and the TGI (UACC-62 melanoma) was over 100 µM. It also gave a TGI (CAKI-1 renal) of over 100 µM, a TGI (IGROV1 ovarian) of over 100 µM and a TGI (A549 NSCLC) of over 100 µM. For the same molecule, the TGI (T-47D breast) was over 100 µM, the TGI (HCC-2998 colon) was over 100 µM and the TGI (RXF 393 renal) was over 100 µM. The TGI (BT-549 breast) was over 100 µM, the TGI (OVCAR-3 ovarian) was over 100 µM and the TGI (EKVX NSCLC) was over 100 µM. It also gave a TGI (SF-539 CNS) of over 100 µM, a TGI (M14 melanoma) of over 100 µM and a TGI (SK-MEL-2 melanoma) of over 100 µM. The TGI (PC-3 prostate) was over 100 µM, the TGI (UO-31 renal) was over 100 µM and the TGI (TK-10 renal) was over 100 µM. For the same molecule, the TGI (U251 CNS) was over 100 µM, the TGI (HS 578T breast) was over 100 µM and the TGI (DU-145 prostate) was over 100 µM. It also gave a TGI (OVCAR-5 ovarian) of over 100 µM, a TGI (UACC-257 melanoma) of over 100 µM and a TGI (786-0 renal) of over 100 µM. For the same molecule, the TGI (HCT-116 colon) was over 100 µM, the TGI (NCI-H23 lung) was over 100 µM and the TGI (SF-295 CNS) was over 100 µM. The TGI (HOP-92 NSCLC) was over 100 µM, the TGI (HCT-15 colon) was over 100 µM and the TGI (SF-268 CNS) was over 100 µM. It also gave a TGI (A498 renal) of over 100 µM, a TGI (SW-620 colon) of over 100 µM and a TGI (SK-OV-3 ovarian) of over 100 µM. The TGI (MDA-N) was over 100 µM, the TGI (MOLT-4 leukemia) was over 100 µM and the TGI (MDA-MB-435) was over 100 µM. For the same molecule, the TGI (HOP-62 NSCLC) was over 100 µM, the TGI (MCF7 breast) was over 100 µM and the TGI (ACHN renal) was over 100 µM. The TGI (HT29 colon) was over 100 µM and the TGI (SK-MEL-5 melanoma) was over 100 µM.
